Test results reported in patent US20070166367A1, “Adept or gdept producing acetaldehyde” (priority 2004, published 2007).
Read-outs that look alike come from different tables or passages of the source.

Tests used:
[1] = tested on: Ad-ADH CMT-64 cells; test: Ad-ADH ethanol cytotoxicity assay; assay type: cell-based; settings: for numbers of cells: seeded at 5×10^5 on Day 0, day 2, FIG. 4; for total cell number as % of the starting number: ethanol
Protocol: (§1) Cells were placed into 6 well plates at 5×10^6 per well. After overnight incubation, the cells were washed twice in PBS then incubated with virus (Hela MOI 100, CMT-64 MOI 1000) at 37° C. for 1 hr in 1 ml of serum free media. Following addition of 3 mls more of tissue culture medium the cells were incubated overnight, assayed for ADH activity and used for experiments as below.

[2] = tested on: Ad-ADH Hela cells; test: Ad-ADH ethanol cytotoxicity assay; assay type: cell-based; settings: seeded at 5×10^5 on Day 0, day 2, FIG. 4
Protocol: as §1

[3] = tested on: Daudi lymphoma cells; test: acetaldehyde combined with Cisplatin in vitro; assay type: cell-based
From the text: The results shown are the number of live cells at each time point shown as a % of the number of cells at the start of the expt (ie 100% at time 0 hrs).

[4] = tested on: CMT-64; test: in vitro acetaldehyde and cisplatin toxicity assay; assay type: cell-based; settings: FIG. 2
Protocol: (§2) Standard tissue culture techniques were used to maintain Hela, Daudi, Jurkat, CMT-64 cells in flasks in DMEM+10% FCS in a 37° C. incubator.
(§3) Cell lines subcloned into 25-cm^2 flasks and incubated in media containing dilutions of acetaldehyde, cisplatin or both. Flasks remained sealed during incubation and the media and acetaldehyde/cisplatin were replaced daily. Viable cell counts were made using Trypan blue exclusion and a standard haemocytometer.

[5] = tested on: Daudi; test: in vitro acetaldehyde and cisplatin toxicity assay; assay type: cell-based; settings: higher cell density, 3 days exposure, FIG. 2
Protocol: as §2, §3

[6] = in vivo; cited from earlier work
[7] = tested on: Ad-ADH CMT-64 cells
Protocol: (§4) The animal experiment was approved by the Cancer Research UK animal use and safety committee and the Home Office before initiation. On the day prior to injection, 6×10^6 CMT-64 cells were transduced with the Ad-ADH virus in vitro, then on Day 0 adult C57B/6 mice received s-c injections in the flank of 5×10^5 Ad-ADH CMT-64 cells (groups 1 and 2) or mock infected CMT-64 cells (groups 3 and 4) suspended in 100 uL of PBS. On days 0-4 groups 1 and 3 were injected with 500 ul of 12% ethanol (2 g/kg) solution IP and groups 2 and 4 received 500 uL of water IP, there were 6 mice in each group. Tumour volume was estimated twice weekly using the formula: volume=(length×width×width)×(3.142/6).
(§5) Tumour size was measure on Days 6, 10 and 13; the results are shown as the mean and SD from 6 mice per group.

[8] = tested on: wild type CMT-64 cells; settings: ethanol 2 g/kg IP days 0-4 (group 3)
Protocol: as §4, §5

[9] = tested on: CMT-64 cells; settings: ethanol IP for several days, particularly on Day 6, FIG. 5
Protocol: CMT-64 cells are injected s-c into mice and tumour growth allowed to proceed.
Virus described above is introduced into the CMT-64 cells.
Alcohol (ethanol) is injected IP for several days.
Tumour dimensions are monitored thereafter.

[10] = chronic exposure to ethanol (4%), +12 weeks; cited from earlier work
[11] = cited from earlier work

## Cc1cn[nH]c1 [4-MP, 4-methylpyrazole]
[1]; 4-MP 10 uMol
  effect on ethanol mediated growth reduction: blocking of this effect

## N.N.[Cl][Pt][Cl] [cisplatin, Cisplatin]
[1]
  numbers of cells: 3.75×10^5
[2]
  numbers of cells: 3.2×10^5
[3]; Cisplatin at 30 μM, 6 hr
  number of live cells as a % of the number of cells at the start: 147%
[3]; Cisplatin at 30 μM, 18 hr
  number of live cells as a % of the number of cells at the start: 122%
[3]; Cisplatin at 30 μM, 21 hr
  number of live cells as a % of the number of cells at the start: 76%
[3]; Cisplatin at 30 μM, 25 hr
  number of live cells as a % of the number of cells at the start: 82%
[3]; Cisplatin at 30 μM, 42 hr
  number of live cells as a % of the number of cells at the start: 36%
[3]; repeated experiment, +25 hours
  number of live cells as a % of the number of cells at the start: 63%
[4]
  cell number as % of starting number: 80%
[5]
  cell number as % of starting number: 21%

## CCO [ethanol]
[1]; 2 days ethanol exposure
  cell number as % of non-ethanol exposed controls: 30%
[1]; ethanol 20 mM, day 2, FIG. 3
  number of cells: 3.7×10^5
[1]; day 2
  total cell number as % of the starting number: 74%
[1]; day 4
  total cell number as % of the starting number: 36%
[1]; extended ethanol exposure, day 4
  number of cells: 1.8×10^5
[1]
  numbers of cells: 3.5×10^5
[2]
  numbers of cells: 6.2×10^5
[6]
  well tolerated levels: 500 to 2500 mg/L
[7]; Day 10 and Day 23, no further increase
  tumour size of one mouse: 0.058 cm3
[7]; day 6
  median size as % of the water treated controls: 30%
[7]; day 13
  median size as % of the water treated controls: 42%
[7]; ethanol 2 g/kg IP days 0-4, day 6
  mean size of the tumours: 0.036 cm^3
[7]; ethanol 2 g/kg IP days 0-4, day 13
  mean size of the tumours: 0.18 cm3
[8]; day 6
  mean tumour volumes: 0.1645 cm^3
[8]; day 13
  mean tumour volumes: 0.514 cm^3
[9]
  tumour growth: significant inhibition of growth
[10]
  cardiac toxicity: severe myocardial damage
[11]; IP ethanol injections of 3.7-3.8 g/kg
  time until blood ethanol levels fell below the limit of detection: 6 to 7 h
[11]; mouse, in vivo
  rate of ethanol metabolism in mice relative to humans: 5 times
